Results taken from paper PMC8037569, “Neuroprotective Effect of Aurantio-Obtusin, a Putative Vasopressin V1A Receptor Antagonist, on Transient Forebrain Ischemia Mice Model” (International Journal of Molecular Sciences, 2021).
“Also recorded” adds a separate entry of the source.

Legend:
h5-HT1AR = biological target: T1, h5-HT1AR (Homo sapiens, UniProt P08908); assay: GPCR functional assay: intracellular Ca2+ mobilization in Ba/F3 cells; assay type: cell-based
T1 construct: host or cells: Ba/F3 (murine pro-B)
T1 sequence (P08908 1-422): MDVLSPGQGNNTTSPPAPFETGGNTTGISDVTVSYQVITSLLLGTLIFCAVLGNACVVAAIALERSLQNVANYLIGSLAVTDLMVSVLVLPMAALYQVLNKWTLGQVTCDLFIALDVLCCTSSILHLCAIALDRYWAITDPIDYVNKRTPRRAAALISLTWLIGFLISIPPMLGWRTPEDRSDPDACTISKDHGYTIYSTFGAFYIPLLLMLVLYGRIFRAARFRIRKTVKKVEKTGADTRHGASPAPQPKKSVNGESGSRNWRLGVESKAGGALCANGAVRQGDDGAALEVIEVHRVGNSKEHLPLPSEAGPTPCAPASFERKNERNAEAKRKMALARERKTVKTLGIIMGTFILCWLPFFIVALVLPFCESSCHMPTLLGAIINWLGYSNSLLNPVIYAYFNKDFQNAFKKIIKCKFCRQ

C57BL/6 mice = assay: Passive avoidance test after transient forebrain ischemia (BCCAO); assay type: in vivo, mouse; conditions: 10 mg/kg, p.o., once daily, 1 h to 7 days after BCCAO; for Latency time in test trial of passive avoidance test: vs BCCAO group, p < 0.05
Method: Male C57BL/6 mice (22–26 g, 7 weeks) were purchased from the Orient Co. Ltd., a branch of Charles River Laboratories (Seoul, Korea), and kept in the University Animal Care Unit for 1 week prior to the experiments. The animals were housed five per cage, allowed access to water and food ad libitum; the environment was maintained at a constant temperature (23 ± 1 °C) and humidity (60 ± 10%) under a 12-h light/dark cycle (the lights were on from 07:30 to 19:30 h). Forty mice were divided equally into four groups (sham + vehicle, n = 10; sham + drug, n = 10; bilateral common carotid artery occluded ischemia + vehicle, n = 10; bilateral common carotid artery occluded ischemia + drug, n = 10) for experiment. The treatment and maintenance of the animals were carried out in accordance with the Animal Care and Use Guidelines of Dong-A University, Korea. All in vivo experiments were performed according to the protocols approved by the Institutional Animal Care and Use Committee of Dong-A University (approved protocol numbers: DIACUC-approved-17-20) and were in accordance with the National Institutes of Health guidelines.
C57BL/6 mice were anesthetized with 2.0% isoflurane and 70% nitrous oxide in oxygen and subjected to transient forebrain ischemia. The transient forebrain ischemia was induced by bilateral common carotid artery occlusion (BCCAO) with aneurysm clips for 20 min, and the circulation was restored by removing the clips. Mice that received the same surgical operation without carotid artery clipping served as sham-operated controls. During the surgical procedure, the rectal temperature was maintained at 37 ± 0.5 °C with a heating pad (Biomed S.L., Barcelona, Spain). The regional cerebral blood flow (rCBF) was monitored using laser Doppler flowmetry (Perimed, PF5010, JarFalla, Sweden). […]
Passive avoidance test was conducted 1 h after the last drug administration. […] For the retention trial, the mouse was again placed in the light compartment and the time required to enter the dark compartment was recorded.

## COc1c(O)cc2c(c1O)C(=O)c1c(cc(C)c(O)c1OC)C2=O [Aurantio-obtusin, 1,3,7-trihydroxy-2,8-dimethoxy-6-methylanthracene-9,10-dione]
h5-HT1AR; 100 µM test compound, control response to serotonin (2.5 μM)
  % Stimulation (agonist effect) of control agonist response, 5-HT1A (h): −6.10 ± 0.00%
h5-HT1AR; BaF3, read-out: % Inhibition (antagonist effect) of control agonist response, 5-HT1A (h) (converted)
  inhibition at 100 µM: 10.1%
C57BL/6 mice; n = 8/group
  Latency time in training trial of passive avoidance test: no significant differences
C57BL/6 mice
  Latency time in test trial of passive avoidance test: significantly attenuated the reduction of latency time
C57BL/6 mice; listed as aurantio-obtusin
  Latency time in test trial of passive avoidance test: attenuated the latency time; also recorded: attenuated that reduction significantly
